# Where two headings read alike, the source gives them in different places.
# How the values were obtained:
# [1] = system: virus with mixture at integrase codon 269 (R269R/G); assay: Susceptibility of virus from subject with protocol-defined virologic failure (integrase R269R/G); design: species or system HIV-1; conditions: eight-week group subject
# [2] = LATTE-2 plasma pharmacokinetics (trough concentrations); assay type: in vivo, human; conditions: for C0 relative to in vitro PA-IC90 / C0 at 48 week: Week 48; for C0 at 48 week: human, plasma, im
# Method: Pharmacokinetic plasma concentrations following long-acting cabotegravir+rilpivirine administration are summarized using evaluable data that met sample collection window criteria, excluding samples affected by dosing errors (wrong dose) or oral bridging. Sampling windows for intramuscular dosing were set relative to the previous injection as follows: ±0.5 hours for two-hour postdose samples; ±one day for one-week postinjection visits; ±two days for predose samples in the four-week group, Weeks 4 and 8 cabotegravir samples in the eight-week group, and midcycle concentrations four weeks postinjection in the eight-week group; and ±four days for predose samples in the eight-week group (except for Weeks 4 and 8 cabotegravir samples, as described earlier).
# [3] = system: wild-type HIV-1; assay: in vitro protein-adjusted 90% inhibitory concentration (PA-IC90); assay type: cell-based; conditions: against wild-type HIV-1
# [4] = system: virus with reverse transcriptase mutations K103N, E138G, and K238T and integrase mutation Q148R; assay: Phenotypic resistance of virus from subject with protocol-defined virologic failure; design: species or system HIV-1; conditions: eight-week group subject, RT K103N
structure (smiles),measurement,setting,value
"C[C@H]1CO[C@@H]2Cn3cc(C(=O)NCc4ccc(F)cc4F)c(=O)c(O)c3C(=O)N12 [cabotegravir, (3S,11aR)—N-[(2,4-difluorophenyl)methyl]-2,3,5,7,11,11a-hexahydro-6-hydroxy-3-methyl-5,7-dioxo-oxazolo[3,2-a]pyrido[1,2-d] pyrazine-8-carboxamide]",Effect of emergent integrase R269R/G mixture on susceptibility,[1],did not decrease
same,C0 relative to in vitro PA-IC90,[2]; eight-week IM LA,9 fold
same,C0 relative to in vitro PA-IC90,[2]; four-week IM LA,16 fold
same,C0 relative to in vitro PA-IC90,[2]; oral 30 mg once daily,27 fold
same,C0 at 48 week,"[2]; eight-week IM LA, read-out: geometric mean trough concentration (C0)",1460 ng/mL
same,C0 at 48 week,"[2]; four-week IM LA, read-out: geometric mean trough concentration (C0)",2580 ng/mL
same,IC90,"[3]; Human immunodeficiency virus 1, read-out: in vitro protein-adjusted 90% inhibitory concentration (PA-IC90)",0.166 µg/mL
same,Phenotypic resistance/sensitivity of subject's virus,[4],phenotypic resistance
C[C@@H]1CCO[C@H]2Cn3cc(C(=O)NCc4ccc(F)cc4F)c(=O)c(O)c3C(=O)N12 [dolutegravir],Phenotypic resistance/sensitivity of subject's virus,[4],sensitive
O=C1Nc2ccc(Cl)cc2[C@@](C#CC2CC2)(C(F)(F)F)O1 [efavirenz],Phenotypic resistance/sensitivity of subject's virus,[4],phenotypic resistance
COc1cc2c(cc1Cc1cccc(Cl)c1F)c(=O)c(C(=O)O)cn2[C@H](CO)C(C)C [elvitegravir],Phenotypic resistance/sensitivity of subject's virus,[4],phenotypic resistance
Cc1ccnc2c1NC(=O)c1cccnc1N2C1CC1 [nevirapine],Phenotypic resistance/sensitivity of subject's virus,[4],phenotypic resistance
Cc1nnc(C(=O)NC(C)(C)c2nc(C(=O)NCc3ccc(F)cc3)c(O)c(=O)n2C)o1 [raltegravir],Phenotypic resistance/sensitivity of subject's virus,[4],phenotypic resistance
Cc1cc(/C=C/C#N)cc(C)c1Nc1ccnc(Nc2ccc(C#N)cc2)n1 [rilpivirine],C0 relative to in vitro PA-IC90,[2]; eight-week IM LA,5 fold
same,C0 relative to in vitro PA-IC90,[2]; four-week IM LA,8 fold
same,C0 at 48 week,"[2]; four-week IM LA, read-out: geometric mean C0",94.6 ng/mL
same,Accumulation on repeated IM dosing,"[2]; through 48 weeks of dosing, both IM arms",Accumulation of rilpivirine was observed
same,IC90,"[3]; Human immunodeficiency virus 1, read-out: in vitro PA-IC90",0.012 µg/mL
same,Phenotypic resistance/sensitivity of subject's virus,[4],phenotypic resistance

# From patent US12178815B2, “Regimens for treating HIV infections and aids” (priority 2017, dated 2024)
